Drawing on patent publication US9533983B2, “Antiplatelet agent” (Mitsubishi Tanabe Pharma Corporation, priority 2009, dated 2017), this text covers IC50 for 36 compounds.

Experiment [1] deals with Collagen-Induced Platelet Aggregation. As to the kind of experiment: Platelet aggregation inhibitory activity: collagen-induced platelet aggregation in platelet rich plasma. It is filed as cell-based. As to conditions: Cavia porcellus, guinea pig PRP. On the procedure:
(§1) A blood of a guinea pig was sampled by using a 1/10 volume of a 3.8% sodium citrate as a platelet aggregation inhibitor, and a platelet rich plasma (PRP) was separated by centrifuging the blood sample at 1100 rpm for 10 min. After fractionating the PRP in the upper layer, the lower layer was centrifuged at 3000 rpm for 10 min to fractionate the platelet poor plasma (PPP). To 100 μL of PRP, a 1 μL solution of each compound was added, and after still standing at 37° C. for 1 min, the mixture was stirred at 37° C. for 1 min by a stirrer. Then, 11 μL of collagen, ristocetin, or ADP was added thereto to induce the platelet aggregation. The platelet aggregation ability was measured by using the mCM hematolaser 313M (L-M-S Inc.). Based on the assumption that a light transmittance of PPP corresponds to a 100% coagulation value, an aggregation rate at each concentration of the compound was determined, then, an IC50 value was calculated therefrom.
[Platelet Aggregation Inhibitory Activities: Collagen-Induced Platelet Aggregation]

Experiment [2] deals with Ristocetin-Induced Platelet Aggregation. As to the kind of experiment: Platelet aggregation inhibitory activity: ristocetin-induced platelet aggregation in platelet rich plasma. The format is cell-based. As to conditions: Cavia porcellus, guinea pig PRP. The protocol:
as §1
[Platelet Aggregation Inhibitory Activities: Ristocetin-Induced Platelet Aggregation]

For the compound `COc1ccc(-n2c(-c3cccc(F)n3)nc3cc(C(F)(F)F)ccc32)nn1` [Example 2, 2-(6-fluoropyridin-2-yl)-1-(6-methoxypyridazin-3-yl)-5-(trifluoromethyl)-1H-benzimidazole], the IC50 in experiment [1] came out at 180 nM; in experiment [2], 92 nM. With `CNc1ccc(-n2c(-c3ccccn3)nc3cc(C(F)(F)F)cnc32)cn1` [Example 5, N-methyl-5-[2-pyridin-2-yl-6-(trifluoromethyl)-3H-imidazo[4,5-b]pyridin-3-yl]pyridin-2-amine], the IC50 in experiment [1] turned out to be 89 nM. This lies in the double-digit nanomolar range. On to `CN(C)c1ccc(-n2c(-c3ccccn3)nc3cc(C(F)(F)F)cnc32)cn1` [Example 6, N,N-dimethyl-5-[2-pyridin-2-yl-6-(trifluoromethyl)-3H-imidazo[4,5-b]pyridin-3-yl]pyridin-2-amine], for which the IC50 in experiment [1] was determined as 257 nM. Regarding `COc1ccc(-n2c(-c3cnc(C#N)cn3)nc3cc(C(F)(F)F)cnc32)cn1` [Example 8, 5-[3-(6-methoxypyridin-3-yl)-6-(trifluoromethyl)-3H-imidazo[4,5-b]pyridin-2-yl]pyrazine-2-carbonitrile], the IC50 in experiment [1] came to 150 nM; in experiment [2], 95 nM. On the same counts, the results for `COc1ccc(-n2c(-c3ccc(OC)nn3)nc3cc(C(F)(F)F)ccc32)cn1` [Example 9, 2-(6-methoxypyridazin-3-yl)-1-(6-methoxypyridin-3-yl)-5-(trifluoromethyl)-1H-benzimidazole] are 150 nM and 140 nM. On the same counts, the results for `COc1ccc(-n2c(-c3ccc[nH]3)nc3cc(C(F)(F)F)cnc32)cn1` [Example 10, 3-(6-methoxypyridin-3-yl)-2-(1H-pyrrol-2-yl)-6-(trifluoromethyl)-3H-imidazo[4,5-b]pyridine] are 18 nM and 15 nM. The like results for `COc1ccc(-n2c(-c3c[nH]cn3)nc3cc(C(F)(F)F)cnc32)cn1` [Example 11, 2-(1H-Imidazol-4-yl)-3-(6-methoxypyridin-3-yl)-6-(trifluoromethyl)-3H-imidazo[4,5-b]pyridine] were, in that order, 130 nM and 57 nM.

For the compound `FC(F)(F)c1ccc2c(c1)nc(-c1ccccn1)n2-c1ccccn1` [Example 12, 1,2-Dipyridin-2-yl-5-(trifluoromethyl)-1H-benzimidazole], the IC50 is 230 nM in experiment [1] and 190 nM in experiment [2]. As for `COc1ccc(-n2c(-c3cnn(C)c3)nc3cc(C(F)(F)F)ccc32)nn1` [Example 15, 1-(6-methoxypyridazin-3-yl)-2-(1-methyl-1H-pyrazol-4-yl)-5-(trifluoromethyl)-1H-benzimidazole], the IC50 came to 280 nM in experiment [1] and 150 nM in experiment [2]. On the same counts, the results for `CCc1ccc2c(c1)nc(-c1ccccn1)n2-c1ccc(OC)nc1` [Example 17, 5-ethyl-1-(6-methoxypyridin-3-yl)-2-pyridin-2-yl-1H-benzimidazole] are 110 nM and 160 nM. As to `COc1ccc(-n2c(-c3ccccc3)nc3cc(C(F)(F)F)ccc32)cn1` [Example 18, 1-(6-methoxypyridin-3-yl)-2-phenyl-5-(trifluoromethyl)-1H-benzimidazole], the values for the IC50 in experiment [1] and in experiment [2] were 490 nM and 120 nM, respectively. For the compound `COc1ccc(-n2c(-c3ccccn3)nc3ccc(C(F)(F)F)cc32)cn1` [Example 19], the half-inhibitory concentration (IC50) in experiment [1] worked out at 10400 nM. This lies in the double-digit micromolar range. For `COc1ccc(-n2c(-c3ccc(Br)cn3)nc3cc(C(F)(F)F)ccc32)cn1` [Example 20, 2-(5-bromopyridin-2-yl)-1-(6-methoxypyridin-3-yl)-5-(trifluoromethyl)-1H-benzimidazole], the IC50 stood at 62 nM in experiment [1] and 210 nM in experiment [2]. As to `COc1ccc(-n2c(-c3ccccn3)nc3ccccc32)cn1` [Example 23], half-maximal inhibition in experiment [1] (IC50) required 4470 nM.

On to `COc1ccc(-n2c(-c3ccc(Br)cn3)nc3cc(C(F)(F)F)ccc32)nn1` [Example 35, 2-(5-bromopyridin-2-yl)-1-(6-methoxypyridazin-3-yl)-5-(trifluoromethyl)-1H-benzimidazole], for which, in experiment [1], it took 44 nM to reach half-maximal inhibition (IC50). On the same count and under the same terms, under `COc1ccc(-n2c(-c3ccccn3)nc3c(C(F)(F)F)cccc32)cn1` [Example 37] stands 2380 nM. On the same count and under the same terms, under `COc1ccc(-n2c(-c3ccccn3)nc3cccnc32)cn1` [Example 49] stands 15000 nM. In turn, `Cc1ccc(-n2c(-c3ccccn3)nc3cc(C(F)(F)F)cnc32)cn1` [Example 118, 3-(6-methylpyridin-3-yl)-2-pyridin-2-yl-6-(trifluoromethyl)-3H-imidazo[4,5-b]pyridine] showed an IC50 in experiment [1] of 240 nM. Same read-out and setting: for `COc1cnc(-n2c(-c3cscn3)nc3cc(C(F)(F)F)cnc32)cn1` [Example 148, 3-(5-methoxypyrazine-2-yl)-2-(1,3-thiazol-4-yl)-6-(trifluoromethyl)-3H-imidazo[4,5-b]pyridine] the value was 81 nM; for `CNc1ccc(-n2c(-c3ccc(F)cn3)nc3cc(C(F)(F)F)cnc32)cn1` [Example 149, 5-[2-(5-fluoropyridin-2-yl)-6-(trifluoromethyl)-3H-imidazo[4,5-b]pyridin-3-yl]-N-methylpyridin-2-amine], 230 nM. On the same count and under the same terms, for `COc1cnc(-n2c(-c3ccn(C)n3)nc3cc(C(F)(F)F)cnc32)cn1` [Example 153, 3-(5-methoxypyrazine-2-yl)-2-(1-methyl-1H-pyrazol-3-yl)-6-(trifluoromethyl)-3H-imidazo[4,5-b]pyridine] the value was 291 nM; for `COc1ccc(-n2c(-c3ccn(C)n3)nc3cc(OC(F)(F)F)ccc32)nn1` [Example 156, 1-(6-methoxypyridazin-3-yl)-2-(1-methyl-1H-pyrazol-3-yl)-5-(trifluoromethoxy)-1H-benzimidazole], 76 nM. As for `COc1cnc(-n2c(-c3cnc(C#N)cn3)nc3cc(C(F)(F)F)cnc32)cn1` [Example 157], it took 74 nM to reach half-maximal inhibition in experiment [1] (IC50). Regarding `COc1cnc(-n2c(-c3ccccn3)nc3cc(C(F)(F)F)ccc32)cn1` [Example 161, 1-(5-methoxypyrazine-2-yl)-2-pyridin-2-yl-5-(trifluoromethyl)-1H-benzimidazole], in experiment [1], half-maximal inhibition (IC50) required 268 nM.

Turning to `COc1ccc(-n2c(-c3cn(C)nn3)nc3cc(C(F)(F)F)ccc32)nn1` [Example 163, 1-(6-methoxypyridazin-3-yl)-2-(1-methyl-1H-1,2,3-triazol-4-yl)-5-(trifluoromethyl)-1H-benzimidazole], in experiment [1], the IC50 was 125 nM. On the same count and under the same terms, for `COc1cnc(-n2c(-c3cn(C)nn3)nc3cc(C(F)(F)F)cnc32)cn1` [Example 164, 3-(5-methoxypyrazine-2-yl)-2-(1-methyl-1H-1,2,3-triazol-4-yl)-6-(trifluoromethyl)-3H-imidazo[4,5-b]pyridine] the value was 161 nM; for `COc1cnc(-n2c(-c3cnn(C)c3)nc3cc(C(F)(F)F)cnc32)cn1` [Example 165, 3-(5-methoxypyrazine-2-yl)-2-(1-methyl-1H-pyrazol-4-yl)-6-(trifluoromethyl)-3H-imidazo[4,5-b]pyridine], 203 nM. The same measure, in the same setting: under `COc1ccc(-n2c(-c3cnn(C)c3)nc3cc(OC(F)(F)F)ccc32)nn1` [Example 166, 1-(6-methoxypyridazin-3-yl)-2-(1-methyl-1H-pyrazol-4-yl)-5-(trifluoromethoxy)-1H-benzimidazole] stands 316 nM. As to `COc1ccc(-n2c(-c3cc(C)on3)nc3cc(OC(F)(F)F)ccc32)nn1` [Example 168, 1-(6-methoxypyridazin-3-yl)-2-(5-methylisoxazol-3-yl)-5-(trifluoromethoxy)-1H-benzimidazole], in experiment [1], half-maximal inhibition (IC50) was put at 259 nM. In experiment [1], `CCOc1cnc2c(c1)nc(-c1ccccn1)n2-c1ccc(OC)nc1` [Example 170, 6-ethoxy-3-(6-methoxypyridin-3-yl)-2-pyridin-2-yl-3H-imidazo[4,5-b]pyridine] gave a 50% inhibitory concentration (IC50) of 279 nM. On to `COc1ccc(-n2c(-c3ccccn3)nc3cc(OCC4CC4)cnc32)cn1` [Example 171, 6-(cyclopropylmethoxy)-3-(6-methoxypyridin-3-yl)-2-pyridin-2-yl-3H-imidazo[4,5-b]pyridine], for which the IC50 in experiment [1] is 91 nM.

In experiment [1], `CCc1nc(-c2nc3cc(C(F)(F)F)cnc3n2-c2ccc(OC)nc2)co1` [Example 172, 2-(2-ethyl-1,3-oxazol-4-yl)-3-(6-methoxypyridin-3-yl)-6-(trifluoromethyl)-3H-imidazo[4,5-b]pyridine] yielded an IC50 of 275 nM. In experiment [1], `COc1cnc(-n2c(-c3ccccn3)cc3cc(C(F)(F)F)cnc32)cn1` [Example 187, 1-(5-methoxypyrazine-2-yl)-2-pyridin-2-yl-5-(trifluoromethyl)-1H-pyrrolo[2,3-b]pyridine] gave a concentration for half-maximal inhibition (IC50) of 40 nM.

With `COc1ccc(-c2c3ccc(C(F)(F)F)cc3nn2-c2ccccn2)cn1` [Example 188, 3-(6-methoxypyridin-3-yl)-2-pyridin-2-yl-6-(trifluoromethyl)-2H-indazole], the IC50 in experiment [1] amounted to 30 nM. In experiment [1], `COc1ccc(-c2c(-c3ccccn3)nc3cc(C(F)(F)F)ccn23)cn1` [Example 190, 3-(6-methoxypyridin-3-yl)-2-pyridin-2-yl-7-(trifluoromethyl)imidazo[1,2-a]pyridine] returned an IC50 of 218 nM. Compared with the last compound, the IC50 is about 7.3-fold higher. The same measure, in the same setting: under `COc1ccc(-c2c(-c3ccc(F)cn3)nc3cc(C(F)(F)F)ccn23)cn1` [Example 191, 2-(5-fluoropyridin-2-yl)-3-(6-methoxypyridin-3-yl)-7-(trifluoromethyl)imidazo[1,2-a]pyridine] stands 790 nM.

For orientation: IC50 means the concentration needed to halve the response being measured. Lower therefore signals higher potency.
